In PMC5418574, “Facile access to potent antiviral quinazoline heterocycles with fluorescence properties via merging metal-free domino reactions” (Nature Communications, 2017):
Several values for one entry are separate records, joined by “and”; a condition that tells them apart may be missing. Identical values can stand only once. Like-named read-outs stand apart in the source and are kept apart here.

How the values were obtained:
HCMV AD169-GFP = assay: HCMV GFP-based replication assay (automated GFP fluorometry); format: cell-based, human cytomegalovirus
Procedure: The measurement of antiviral activity was based on automated fluorometry using a green fluorescent protein (GFP)-expressing, recombinant HCMV (excitation 485 nm, emission 535 nm; see Supplementary Note 2, Supplementary Data 1 and Supplementary Fig. 4 for dose–response curves).
HCMV GFP‐based replication assay and cell proliferation assay. The replication of human cytomegalovirus (HCMV) was determined by an established HCMV GFP-based replication assay as carried out over a duration of approx. seven days (multi-round infection) using cultures of primary human foreskin fibroblasts (HFFs). HFFs were cultivated in 12-well plates for the infection with a GFP-expressing recombinant human cytomegalovirus (HCMV AD169-GFP) and a signal quantitation using automated GFP fluorometry as described before.2-4 All data represent mean values of determinations in quadruplicate (HCMV infections performed in duplicate, GFP measurements of total cell lysates performed in duplicate). Processing and evaluation of data was performed by the use of Excel (means and standard deviations, see Supplementary Figure 4 and Supplementary Data 1). […]

[1] = trypan blue exclusion cytotoxicity assay; format: cell-based; conditions: human, primary HFFs (human foreskin fibroblasts), 0.2-100 μM for 3 days, n=6 (artesunic acid n=3)
Procedure: (§1) In addition, EC50 values were confirmed using non-GFP-expressing HCMV (strain AD169) by a classical plaque formation assay on HFFs (n=4), providing data consistent with the GFP-based data shown in Table 1, that is, compound 7h, 7.3±0.7 μM; compound 8, 0.3±0.0 μM; compound 9, 0.3±0.1 μM. Moreover, antiviral activity was clearly separated from putative cytotoxic effects because of the results obtained with a standard trypan blue exclusion assay. […] Consistent with these findings are results from a MTS-based cell proliferation assay, showing moderate or no antiproliferative effects on HFFs for all analysed compounds in concentrations up to 30 μM (see Supplementary Fig. 5 and Supplementary Methods). Thus, the new quinazolines and hybrid compounds can be regarded as selective, which is one of the most important aspects in drug design.
Cytotoxicity and Cell Proliferation Assays
Assays measuring distinct parameters of cytotoxicity and/or cell proliferation were performed as described earlier.7, 8 In brief, a trypan blue exclusion assay was performed with cultured cells seeded in 24-well plates and incubated with increasing concentrations of antiviral compounds (range of 0.2 μM to […]
before the percentage of viable cells was determined by microscopic counting (determination at least in triplicates). The cell proliferation assay (CellTiter 96 AQueous One Solution cell proliferation assay; Promega) was performed in a 96-well plate format after a 3-day treatment with compounds under standard conditions of measurement as described by the manufacturer. […]

primary HFFs = assay: confocal laser-scanning microscopy of cellular uptake of fluorescent compounds; format: cell-based, human; conditions: 1–10 μM, uninfected or HCMV-infected, 20 h incubation
Procedure: Figure 7 Microscopy-based visualization of cellular uptake of fluorescent quinazoline compounds. (a) Artesunic acid–quinazoline hybrids 8 and 9. (b–d) Compounds 7h, 7g and 9 were analysed for properties of fluorescence imaging using confocal laser-scanning microscopy. HFFs were cultivated in six-well plates on cover slips and were either directly incubated with compounds by addition to the culture media for 20 h (c) or were added after HCMV infection (b,d; compound addition at 50 h post infection, fixation and analysis of cells 20 h later; scale bar, 10 μm). The chosen concentrations were 10 μM for compounds 7h, 7g and 9, or 1 μM for compound 9 in panels 4, 9 (b), panels 5, 10 (c) and panels 6–10 (d), referring to the compounds' EC50 values of anti-HCMV activity (see Table 1). The depicted images are representative for three independent experiments. Lack of mycoplasm contamination was verified by routine 4,6-diamidino-2-phenylindole staining. General procedures of cell fixation, indirect immunofluorescence staining of proteins (d) and microscopic analysis have been described elsewhere.
When analysing primary HFFs, the fluorescent compounds 7g, 7h and 9 could nicely be depicted both in extracellular (transparent arrows) and intracellular localizations (filled arrows; Fig. 7b,c). […] A nonfluorescent artemisinin-derived control compound (Fig. 7c, panels 2 and 7; see also Supplementary Fig. 6), the DMSO panels (solvent controls) as well as the inspection of different excitation wavelengths of the confocal laser-scanning microscopy confirmed the specificity of signals and a lack of unwarranted cross-fluorescence. […] An indirect immunofluorescence counterstaining of viral and cellular proteins[36][37] led to the detection of nuclear markers, that is, the viral protein kinase pUL97 and cellular lamins type A/C (Fig. 7d, panels 4, 9, 14 or 5, 10, 15, respectively), in the context of extracellular and intracellular fluorescence signals of compounds 7h and 9 (Fig. 7d, panels 1–5 or 6–15, respectively). […]

[2] = tested on: non-GFP-expressing HCMV (strain AD169); assay: classical plaque formation assay on HFFs; format: cell-based, human cytomegalovirus; conditions: Human betaherpesvirus 5, AD169, read-out: EC50, plaque formation assay
Procedure: as §1

[3] = Human betaherpesvirus 5, AD169, read-out: HCMV EC50
[4] = Human betaherpesvirus 5, AD169, read-out: EC50 (sheet Curves)

SMILES	GFP signal, % of Inf./DMSO, MW (mean) (HCMV AD169-GFP; 0.01 µM) [%]	GFP signal, % of Inf./DMSO, single determination (raw data) (HCMV AD169-GFP; 0.01 µM)	GFP signal, % of Inf./DMSO, MW (mean) (HCMV AD169-GFP; 0.04 µM) [%]	GFP signal, % of Inf./DMSO, single determination (raw data) (HCMV AD169-GFP; 0.04 µM)	GFP signal, % of Inf./DMSO, MW (mean) (HCMV AD169-GFP; 0.12 µM) [%]	GFP signal, % of Inf./DMSO, single determination (raw data) (HCMV AD169-GFP; 0.12 µM)	GFP signal, % of Inf./DMSO, MW (mean) (HCMV AD169-GFP; 0.37 µM) [%]	GFP signal, % of Inf./DMSO, single determination (raw data) (HCMV AD169-GFP; 0.37 µM)	GFP signal, % of Inf./DMSO, MW (mean) (HCMV AD169-GFP; 1.1 µM) [%]	GFP signal, % of Inf./DMSO, single determination (raw data) (HCMV AD169-GFP; 1.1 µM)	GFP signal, % of Inf./DMSO, MW (mean) (HCMV AD169-GFP; 3.3 µM) [%]	GFP signal, % of Inf./DMSO, single determination (raw data) (HCMV AD169-GFP; 3.3 µM)	EC50 (HCMV AD169-GFP; [3]) [µM]	CC50 at 3 days [1] [µM]	GFP signal, % of Inf./DMSO, MW (mean) (HCMV AD169-GFP; 10 µM) [%]	cellular uptake (intracellular fluorescence) (primary HFFs)	GFP signal, % of Inf./DMSO, single determination (raw data) (HCMV AD169-GFP; 10 µM)	EC50 [2] [µM]	EC50 (HCMV AD169-GFP; [4]) [µM]
Cc1ccc(-c2cc(-c3ccc(C)cc3)c3c(N)ncnc3c2C#N)cc1 [7b]	89	90% and 87% and 92%	89	91% and 86% and 89% and 90%	87	98% and 91% and 76% and 82%	89	81% and 82% and 95% and 98%	62	65% and 63% and 64% and 56%	53	55% and 51% and 56%	9.5 ± 4.8	> 100	–	–	–	–	–
N#Cc1c(-c2ccc(F)cc2)cc(-c2ccc(F)cc2)c2c(N)ncnc12 [7g]	–	–	–	–	93	82% and 87% and 122% and 80%	94	94% and 96% and 90%	79	73% and 94% and 71% and 79%	62	61% and 63% and 60% and 66%	4.9 ± 0.2	> 100	10	efficient cellular uptake	–	–	–
N#Cc1c(-c2ccc(C(F)(F)F)cc2)cc(-c2ccc(C(F)(F)F)cc2)c2c(N)ncnc12 [7h]	–	–	–	–	72	60% and 89% and 90% and 49%	71	80% and 75% and 61% and 68%	75	61% and 62% and 87% and 89%	58	58% and 67% and 50% and 57%	4.6 ± 0.9	> 100	22	efficient cellular uptake	16% and 27% and 28%	7.3 ± 0.7	–
COc1ccc(-c2cc(-c3ccc(OC)cc3)c3c(N)ncnc3c2C#N)cc1 [7i]	82	85% and 84% and 78%	91	100% and 98% and 84%	83	89% and 80% and 75%	54	53% and 57%	38	39% and 42% and 35%	31	28% and 26% and 34% and 35%	0.6 ± 0.1	> 100	–	–	–	–	0.56
C[C@@H]1CC[C@H]2[C@@H](C)C(=O)O[C@@H]3O[C@@]4(C)CC[C@@H]1[C@]32OO4 [Artemisinin, reference compound]	–	–	–	–	–	–	–	–	–	–	–	–	> 10	> 100	–	–	–	–	–
C[C@H]1[C@H](OC(=O)CCC(=O)O)O[C@@H]2O[C@@]3(C)CC[C@H]4[C@H](C)CC[C@@H]1[C@@]24OO3 [Artesunic acid, reference compound]	–	–	–	–	–	–	–	–	–	–	–	–	3.8 ± 0.4	82 ± 0.9	–	–	–	–	–
Nc1nc(O)c2ncn(COC(CO)CO)c2n1 [Ganciclovir, reference compound]	–	–	–	–	–	–	–	–	–	–	–	–	2.6 ± 0.5	> 100	–	–	–	–	–
CC1CCC2C(C)C(OC(=O)CCC(=O)OCCCNc3ncnc4c(C#N)c(-c5ccc(F)cc5)cc(-c5ccc(F)cc5)c34)OC3OC4(C)CCC1C32OO4 (stereo not shown) [compound 8]	88	102% and 75% and 74%	90	89% and 86% and 90% and 94%	88	93% and 86% and 79%	73	80% and 78% and 68% and 66%	11	10% and 11% and 12%	7	7.61% and 6.36% and 6% and 7%	0.6 ± 0.1	> 100	–	–	–	0.3	0.64
CC1CCC2C(C)C(OC(=O)CCC(=O)OCCCNc3ncnc4c(C#N)c(-c5ccc(C(F)(F)F)cc5)cc(-c5ccc(C(F)(F)F)cc5)c34)OC3OC4(C)CCC1C32OO4 (stereo not shown) [compound 9]	84	73% and 98% and 95% and 70%	81	84% and 89% and 73% and 77%	49	51% and 47% and 53% and 46%	1.06	0.952% and 0.865% and 1.31% and 1.1%	0.87	0.763% and 0.908% and 0.901%	–	–	0.1	> 100	–	efficient cellular uptake	–	0.3 ± 0.1	–
